PMC12114375, “Discovery of Hydrazineyl Amide Derivative of Pseudolaric Acid B for Reprogramming Tumor-Associated Macrophages Against Tumor Growth” (Molecules, 2025)

Assays:
Type in all cases: cell-based, mouse
Raw264.7 cells = test: Cell viability (CCK-8) of RAW264.7 cells; conditions: IL-4/IL-13 plus compound 10 μM, 12 h
Procedure: Cells were seeded in 96-well tissue culture plates. On the next day, cells were exposed to various concentrations of compounds and further cultured for the indicated period. Finally, cell proliferation was determined by using the Cell Counting Kit (CCK-8) (Dojindo, Kumamoto, Japan) assay.
Figure S2. Effects of natural pseudolaric acids 1-4, 6 and their O-pyranosides 5, 7 as well as the derivatives 8-18 o f 1 on Raw264.7 cell viability. Raw264.7 cells were treated with IL-4/IL-13 alone or combined with indicated compounds (10 μM) for 12 h. After incubation, the cell viability was determined using a cell counting kit (CCK-8, Dojindo, Japan) assay.
(1 picture or pasted object on this page, not shown here)

[1] = system: ARG1 mRNA expression in RAW 264.7 cells; test: qRT-PCR of ARG1 mRNA in IL-4/IL-13-stimulated RAW 264.7 cells; conditions: 12 h, mean ± SD; for mrna remaining at 10 µM: RAW264.7, IL-4/IL-13 (20 ng/mL) plus compound 10 μM; for mrna remaining at 10 µM / ARG1 mRNA Relative Expression (%): stimulated control = 100%; for ARG1 mRNA Relative Expression (%): IL-4/IL-13 (20 ng/mL) plus compound 10 μM
Source text: (§1) We first investigated the impacts of a series of commercially available natural pseudolaric acids or their O-pyranosides (Figure 1) on the pro-tumoral phenotype of TAMs, which play a critical role in anti-tumor immune response modulation. […] In contrast, M1-biased macrophages combat tumor growth and bacterial infections by expressing inducible nitric oxide synthase 2 (NOS2), which catalyzes the production of nitric oxide (NO). Recognizing the pivotal roles of ARG1 and NOS2, we utilized these molecules as key biomarkers and effectors for assessing macrophage immune function. In our experiments, the mouse monocyte–macrophage leukemia cell line RAW 264.7 was induced with IL-4/IL-13 to acquire an M2-like pro-tumoral phenotype. Concurrently, the cells were treated with the pseudolaric acid-related natural products 1–7 at a concentration of 10 μM for 12 h. Additionally, PLX3397 was used as a positive control at a concentration of 0.5 μM. […] As shown in Table 1 and Figure S1A, pseudolaric acid B (1), its deacetoxyl analogue 2 (pseudolaric acid C), and β-D-glucoside 7 substantially attenuated the upregulation of ARG1 mRNA expression induced by IL-4/IL-13, with statistically significant effects. In contrast, bis-carboxylic acids analogs 4 (pseudolaric acid C2) and 6 (demethoxydeacetoxypseudolaric acid B) have no significant impact on ARG1 mRNA expression.
(§2) With these carboxylic acid-modified derivatives in hand, we investigated their impact at 10 μM on ARG1 and NOS2 mRNA expression in RAW 264.7 cells pre-stimulated with IL-4/IL-13 to evaluate the effects on the pro-tumor phenotype of macrophages. […] Further removal of one hydroxyl from the glycerol moiety 15 further enhanced the inhibitory effect on ARG1 expression but had no significant impact on NOS2 expression.
(§3) Total RNA was isolated from cells using the EZ-press RNA Purification Kit (EZBioscience, Suzhou, China) and subjected to reverse transcription with the 5×HiScript II qRT SuperMix II (Vazyme, Nanjing, China). PCR was performed with the 2×ChamQ Universal SYBR qPCR Master Mix (Vazyme, Nanjing, China). All primers for qRT-PCR are described in Table S1. The 2^−∆∆Ct method was utilized to calculate the fold change in gene expression, with the expression levels in the stimulated group set as the baseline for normalization.

[2] = system: NOS2 mRNA expression in RAW 264.7 cells; test: qRT-PCR of NOS2 mRNA in IL-4/IL-13-stimulated RAW 264.7 cells; conditions: 12 h, mean ± SD; for activity at 10 µM: RAW264.7, IL-4/IL-13 (20 ng/mL) plus compound 10 μM; for activity at 10 µM / NOS2 mRNA Relative Expression (%): stimulated control = 100%; for NOS2 mRNA Relative Expression (%): IL-4/IL-13 (20 ng/mL) plus compound 10 μM
Source text: as §1, §2, §3

[3] = Mus musculus, read-out: ARG1 mRNA Relative Expression (%)
[4] = Mus musculus, read-out: NOS2 mRNA Relative Expression (%)

Compound	mrna remaining at 10 µM [1, 3] [%]	activity at 10 µM [2, 4] [%]	other results
COC(=O)C1=CC[C@@]23CC[C@@H]([C@@](C)(/C=C/C=C(\C)C(=O)O[C@@H]4O[C@H](CO)[C@@H](O)[C@H](O)[C@H]4O)OC2=O)[C@@]3(OC(C)=O)CC1 [compound 7, reference compound]	21.2 ± 13	307 ± 36.2	cell viability (Raw264.7 cells): only a minimal reduction in cell viability
FC(F)(F)c1ccc(CNc2ccc(Cc3c[nH]c4ncc(Cl)cc34)cn2)cn1 [PLX3397, reference compound]			mrna remaining at 0.5 µM ([1]; Mus musculus, RAW264.7, IL-4/IL-13 (20 ng/mL) plus positive control 0.5 μM, read-out: ARG1 mRNA Relative Expression (%)): 3.2 ± 2.4%; activity at 0.5 µM ([2]; Mus musculus, RAW264.7, IL-4/IL-13 (20 ng/mL) plus positive control 0.5 μM, read-out: NOS2 mRNA Relative Expression (%)): 193 ± 10.2%
(2E,4E)-5-((3R,4S,4aS,9aR)-4a-acetoxy-7-(methoxycarbonyl)-3-methyl-1-oxo-3,4,4a,5,6,9-hexahydro-1H-4,9a-ethanocyclohepta[c]pyran-3-yl)-2-methylpenta-2,4-dienoic acid [compound 15]			ARG1 mRNA Relative Expression (%) [1]: 18.7 ± 18.0%; NOS2 mRNA Relative Expression (%) [2]: 130.3 ± 5.8%
COC(=O)C1=CC[C@@]23CC[C@@H]([C@@](C)(/C=C/C=C(\C)C(=O)OC4O[C@H](COC(C)=O)[C@@H](OC(C)=O)C(OC(C)=O)[C@H]4OC(C)=O)OC2=O)[C@@]3(OC(C)=O)CC1 (stereo partly drawn) [compound 16, (3R,5R,6R)-2-(((2E,4E)-5-((3R,4S,4aS,9aR)-4a-Acetoxy-7-(methoxycarbonyl)-3-methyl-1-oxo-3,4,4a,5,6,9-hexahydro-1H-4,9a-ethanocyclohepta[c]pyran-3-yl)-2-methylpenta-2,4-dienoyl)oxy)-6-(acetoxymethyl)tetrahydro-2H-pyran-3,4,5-triyl triacetate]	80 ± 27.5	95.2 ± 23	
COC(=O)C1=CC[C@@]23CC[C@@H]([C@@](C)(/C=C/C=C(\C)C(=O)NCC(C)O)OC2=O)[C@@]3(OC(C)=O)CC1 (stereo partly drawn) [compound 10, Methyl(3R,4S,4aS,9aR)-4a-acetoxy-3-((1E,3E)-5-((2-hydroxypropyl)amino)-4-methyl-5-oxopenta-1,3-dien-1-yl)-3-methyl-1-oxo-3,4,4a,5,6,9-hexahydro-1H-4,9a-ethanocyclohepta[c]pyran-7-carboxylate]	7.5	103 ± 7.2	
(2R,3S,4S,5R,6R)-6-(((2E,4E)-5-((3R,4S,4aS,9aR)-4a-Acetoxy-7-(methoxycarbonyl)-3-methyl-1-oxo-3,4,4a,5,6,9-hexahydro-1H-4,9a-ethanocyclohepta[c]pyran-3-yl)-2-methylpenta-2,4-dienoyl)oxy)tetrahydro-2H-pyran-2,3,4,5-tetrayl tetraacetate [compound 18]			ARG1 mRNA Relative Expression (%) [1]: 42.6 ± 30.2%; NOS2 mRNA Relative Expression (%) [2]: 58.7 ± 4.5%
CC(=O)O[C@]12CCC(C)=CC[C@]13CC[C@H]2[C@@](C)(/C=C/C=C(\C)C(=O)O[C@@H]1O[C@H](CO)[C@@H](O)[C@H](O)[C@H]1O)OC3=O [compound 5, reference compound]	16.2 ± 9.2	158 ± 17.2	
COC(=O)C1=CC[C@@]23CC[C@@H]([C@@](C)(/C=C/C=C(\C)C(=O)NC(CO)(CO)CO)OC2=O)[C@@]3(OC(C)=O)CC1 [compound 14, Methyl(3R,4S,4aS,9aR)-4a-acetoxy-3-((1E,3E)-5-((1,3-dihydroxy-2-(hydroxymethyl)propan-2-yl)amino)-4-methyl-5-oxopenta-1,3-dien-1-yl)-3-methyl-1-oxo-3,4,4a,5,6,9-hexahydro-1H-4,9a-ethanocyclohepta[c]pyran-7-carboxylate]	42.2 ± 9.5	136 ± 8	
COC(=O)C1=CC[C@@]23CC[C@@H]([C@@](C)(/C=C/C=C(\C)C(=O)NCC(F)(F)F)OC2=O)[C@@]3(OC(C)=O)CC1 [compound 9, Methyl (3R,4S,4aS,9aR)-4a-acetoxy-3-methyl-3-((1E,3E)-4-methyl-5-oxo-5-((2,2,2-trifluoroethyl)amino)penta-1,3-dien-1-yl)-1-oxo-3,4,4a,5,6,9-hexahydro-1H-4,9a-ethanocyclohepta[c]pyran-7-carboxylate]	7.4	149	NOS2 mRNA Relative Expression (%) [2]: 148.7 ± 14.1%
COC(=O)C1=CC[C@@]23CC[C@@H]([C@@](C)(/C=C/C=C(\C)C(=O)NCCN(CCO)CCO)OC2=O)[C@@]3(OC(C)=O)CC1 [compound 13, Methyl(3R,4S,4aS,9aR)-4a-acetoxy-3-((1E,3E)-5-((2-(bis(2-hydroxyethyl)amino)ethyl)amino)-4-methyl-5-oxopenta-1,3-dien-1-yl)-3-methyl-1-oxo-3,4,4a,5,6,9-hexahydro-1H-4,9a-ethanocyclohepta[c]pyran-7-carboxylate]	72.2 ± 10.2	134 ± 5	
COC(=O)C1=CC[C@@]23CC[C@@H]([C@@](C)(/C=C/C=C(\C)C(=O)O[C@H]4OC[C@@H](OC(C)=O)[C@H](OC(C)=O)[C@H]4OC(C)=O)OC2=O)[C@@]3(OC(C)=O)CC1 [compound 17, (2R,3R,4S,5R)-2-(((2E,4E)-5-((3R,4S,4aS,9aR)-4a-Acetoxy-7-(methoxycarbonyl)-3-methyl-1-oxo-3,4,4a,5,6,9-hexahydro-1H-4,9a-ethanocyclohepta[c]pyran-3-yl)-2-methylpenta-2,4-dienoyl)oxy)tetrahydro-2H-pyran-3,4,5-triyl triacetate]	32.3 ± 19.2	91.3 ± 6.9	
CC(=O)O[C@]12CCC(C)=CC[C@]13CC[C@H]2[C@@](C)(/C=C/C=C(\C)C(=O)O)OC3=O [compound 3, pseudolaric acid A, reference compound]	343 ± 27.9	297 ± 6.8	
COC(=O)C1=CC[C@@]23CC[C@@H]([C@@](C)(/C=C/C=C(\C)C(=O)O)OC2=O)[C@@]3(O)CC1 [compound 2, pseudolaric acid C, reference compound]	17.3 ± 9.1	80.1 ± 15.6	
CC(=O)O[C@]12CCC(C(=O)O)=CC[C@]13CC[C@H]2[C@@](C)(/C=C/C=C(\C)C(=O)O)OC3=O [compound 4, pseudolaric acid C2, reference compound]	87.4 ± 25.4	131 ± 14.5	
